# Assay results as given in patent US8581005B2, “Mitochondrial inhibitors to treat human disease” (Albert Einstein College of Medicine of Yeshiva University, priority 2009, dated 2013).
# Read-outs that look alike come from different tables or passages of the source.
# What was measured:
# [1] = system: Sacchromyces cerevisiae strain J47D; test: In vitro cell proliferation assay (yeast proliferation); type: cell-based; set-up: key to Inhibition of yeast proliferation: (+) Complete inhibition (no proliferation); (−) no inhibition (normal proliferation); (+/−) partial inhibition; (i) compound insoluble
# Experimental: (§1) Sacchromyces cerevisiae strain J47D in log phase growth, was plated in 96 well dishes at 1.5×10^4 cells/well in YEPD media. Magmas inhibitors were diluted in DMSO and added at various concentrations (range 0 mM to 1 mM) to each well in triplicate at a final DMSC concentration of 1%. Samples were cultured at 30° C. in a Bioscreen C MBR incubator (Growth Curves USA, Piscataway, N.J.) and optical density (OD) readings were measured every 30 minutes for the indicated time in the plots. Cell proliferation data was analyzed and plotted using Microsoft Excel. Standard deviations were smaller than 2% of the mean OD value (n=3), and each experiment was performed at least two independent times.
# Reduced Magmas function caused by siRNA knockdown or by mutations in Magmas causes growth inhibition and cell cycle arrest. To assay whether the compounds were active, their ability to inhibit yeast proliferation was measured. The results obtained in yeast are equivalent to those found in mammalian cells in part because the human homolog is fully functional in yeast and the target region is identical across all eukaryotic species.
# Karpas = test: Viability of human cells, trypan blue dye exclusion; type: cell-based; set-up: key: (+) Viable; (−) dead; (+/−) partial viability; settings: 48 hrs
# Experimental: (§2) Cell lines derived from human hematological malignancies and glioblastoma multiforme, and human umbilical vascular endothelial cells (HUVEC) were cultured in standard media with the concentrations of 9 indicated in Table 3. Viable cells were scored by trypan blue dye exclusion at 48 hrs. The HUVEC population consisted of a pool of primary cells isolated from the blood vessels of 4 umbilical cords. Each cell type was tested in duplicate in at least three independent experiments.
# Toledo = test: as above; type: cell-based; set-up: key: (+) Viable; (−) dead; (+/−) partial viability; settings: 48 hrs
# Experimental: as §2
# K562 = test: as above; type: cell-based; set-up: key: (+) Viable; (−) dead; (+/−) partial viability; settings: 48 hrs
# Experimental: as §2
# Pfeiffer = test: as above; type: cell-based; set-up: key: (+) Viable; (−) dead; (+/−) partial viability; settings: 48 hrs
# Experimental: as §2
# U118 = test: as above; type: cell-based; set-up: key: (+) Viable; (−) dead; (+/−) partial viability; settings: 48 hrs
# Experimental: as §2
# U87 = test: as above; type: cell-based; set-up: key: (+) Viable; (−) dead; (+/−) partial viability; settings: 48 hrs
# Experimental: as §2
# purified mouse Magmas = target: T1, purified mouse Magmas (Mus musculus, UniProt Q9CQV1); test: Binding to Magmas by fluorescence emission spectrum (tyrosine); settings: murine Magmas, FIG. 3B; read-out: calculated Kd
# T1 sequence (Q9CQV1 1-125): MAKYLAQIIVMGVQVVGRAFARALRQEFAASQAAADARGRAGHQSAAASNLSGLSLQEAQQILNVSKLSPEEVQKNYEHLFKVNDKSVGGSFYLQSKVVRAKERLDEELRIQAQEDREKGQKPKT
# Experimental: (§3) The binding of 9 to both purified yeast and mouse Magmas was evaluated. The fluorescence spectrum of tryptophan was measured for the binding to the yeast target and the fluorescence spectrum of tyrosine was measured for the binding to the murine target. The spectral shift observed at varying concentrations of 9 was used to determine the binding constant (FIG. 3).
# HUVEC = test: Viability of human cells, trypan blue dye exclusion; type: cell-based; set-up: key to viability of human cells: (+) Viable; (−) dead; (+/−) partial viability; settings: for viability of human cells: HUVEC, 48 hrs
# Experimental: as §2
# [2] = system: yeast strains containing several different Magmas mutations expressed on a plasmid; test: Yeast proliferation assay with Magmas mutations and over-expression; type: cell-based
# Description: Mutations in Magmas were introduced by error prone PCR and the changes were identified by sequencing. Only genes with a single amino acid change were further analyzed. The genes encoding the mutations were spliced into plasmid pRS315 containing the selectable […] marker (leu) and transfected into yeast where the wt genomic copy was replaced by a his cassette and the essential Magmas activity was maintained by wt Magmas in the plasmid pRS316 (ura). The plasmid containing the wt Magmas gene was lost by selection in media containing FOA, resulting in yeast strains only expressing the mutant gene. Total yeast protein from each of the strains was separated by SDS-PAGE, and transferred to nitrocellulose membranes. The membranes were sequentially incubated with rabbit anti-Magmas antibody, HRP conjugated goat anti-rabbit antibody and chemiluminescence reagent. The signal was captured with a Fujifilm LAS-3000 Imager and the data analyzed with ImageGage software.
# as §1
# All of these stains express similar levels of Magmas protein, which is approximately 4 fold higher than the haploid control (Wt genomic).
# purified yeast Magmas = target: T2, purified yeast Magmas (Saccharomyces cerevisiae, UniProt P42949); test: Binding to Magmas by fluorescence emission spectrum (tryptophan)
# T2 sequence (P42949 1-149): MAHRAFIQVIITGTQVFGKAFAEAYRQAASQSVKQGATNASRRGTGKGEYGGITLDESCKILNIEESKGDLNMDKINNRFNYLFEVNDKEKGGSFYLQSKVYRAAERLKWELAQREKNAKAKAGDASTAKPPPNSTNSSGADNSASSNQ
# Experimental: as §3
# HeLa cells = test: Mitotracker Red mitochondrial activity; type: cell-based; settings: 6 μM for 12 hours
# Experimental: HeLa cells were treated with 6 μM Compound 9 for 12 hours. The cells were then incubated with Mitotracker Red (100 nM) for 15 minutes, washed, fixed with formaldehyde, and examined by fluorescent microscopy. […] This confirms that the invention affects mitochondrial activity.
compound,measurement,setting,value
c1ccc(C2=Nc3ccccc3OC2)cc1 [Compound 1],Effect on yeast proliferation,[1]; doses up to and including 6 μM,not effective
O=[N+]([O-])c1ccc2c(c1)N=C(c1ccccc1)CO2 [Compound 2],Effect on yeast proliferation,[1]; doses up to and including 6 μM,not effective
Clc1ccc2c(c1)N=C(c1ccccc1)CO2 [Compound 3],Effect on yeast proliferation,[1]; doses up to and including 6 μM,not effective
Clc1ccc2c(c1)C=CC(c1ccccc1)O2 (stereo not drawn) [Compound 4],Inhibition of yeast proliferation,[1]; 1 μM,−
same,Inhibition of yeast proliferation,[1]; 10 μM,−
same,Inhibition of yeast proliferation,[1]; 100 μM,+
same,Inhibition of yeast proliferation,[1]; 1 mM,i
O=[N+]([O-])c1ccc2c(c1)C=CC(c1ccccc1)O2 (stereo not drawn) [Compound 5],Inhibition of yeast proliferation,[1]; 1 μM,−
same,Inhibition of yeast proliferation,[1]; 10 μM,−
same,Inhibition of yeast proliferation,[1]; 100 μM,−
same,Inhibition of yeast proliferation,[1]; 1 mM,−
same,Effect on yeast proliferation,[1]; all concentrations,inactive
Brc1ccc2c(c1)C=CC(c1ccccc1)O2 (stereo not drawn) [Compound 6],Inhibition of yeast proliferation,[1]; 1 μM,−
same,Effect on yeast proliferation,[1]; 10 μM,partially inhibitory
same,Inhibition of yeast proliferation,[1]; 10 μM,+/−
same,Inhibition of yeast proliferation,[1]; 100 μM,+
same,Inhibition of yeast proliferation,[1]; 1 mM,+
Oc1cccc2c1OC(c1ccccc1)C=C2 (stereo not drawn) [Compound 7],Effect on yeast proliferation,[1]; doses up to and including 6 μM,not effective
CCCCCCCCC1C=Cc2cc([N+](=O)[O-])ccc2O1 (stereo not drawn) [Compound 8],Inhibition of yeast proliferation,[1]; 1 μM,−
same,Inhibition of yeast proliferation,[1]; 10 μM,−
same,Inhibition of yeast proliferation,[1]; 100 μM,+
same,Inhibition of yeast proliferation,[1]; 1 mM,i
CCC1=C(C)/C(=C/c2ccc(C(=O)NC(=N)N)cc2)CCC1(C)C [Compound 9],viability of human cells,Karpas; 2 um,+/−
same,viability of human cells,Karpas; 4 um,+/−
same,viability of human cells,Karpas; 6 um,+/−
same,viability of human cells,Karpas; 8 um,−
same,viability of human cells,Karpas; 12 um,−
same,viability of human cells,Karpas; 16 um,−
same,viability of human cells,Karpas; 20 um,−
same,viability of human cells,Karpas; 24 um,−
same,viability of human cells,Toledo; 2 um,+/−
same,viability of human cells,Toledo; 4 um,+/−
same,viability of human cells,Toledo; 6 um,−
same,viability of human cells,Toledo; 8 um,−
same,viability of human cells,Toledo; 12 um,−
same,viability of human cells,Toledo; 16 um,−
same,viability of human cells,Toledo; 20 um,−
same,viability of human cells,Toledo; 24 um,−
same,viability of human cells,"K562; K562, 2 um",+/−
same,viability of human cells,"K562; K562, 4 um",+/−
same,viability of human cells,"K562; K562, 6 um",−
same,viability of human cells,"K562; K562, 8 um",−
same,viability of human cells,"K562; K562, 12 um",−
same,viability of human cells,"K562; K562, 16 um",−
same,viability of human cells,"K562; K562, 20 um",−
same,viability of human cells,"K562; K562, 24 um",−
same,viability of human cells,Pfeiffer; 2 um,+/−
same,viability of human cells,Pfeiffer; 4 um,+/−
same,viability of human cells,Pfeiffer; 6 um,−
same,viability of human cells,Pfeiffer; 8 um,−
same,viability of human cells,Pfeiffer; 12 um,−
same,viability of human cells,Pfeiffer; 16 um,−
same,viability of human cells,Pfeiffer; 20 um,−
same,viability of human cells,Pfeiffer; 24 um,−
same,viability of human cells,"U118; U118, 2 um",+/−
same,viability of human cells,"U118; U118, 4 um",−
same,viability of human cells,"U118; U118, 6 um",−
same,viability of human cells,"U118; U118, 8 um",−
same,viability of human cells,"U118; U118, 12 um",−
same,viability of human cells,"U118; U118, 16 um",−
same,viability of human cells,"U118; U118, 20 um",−
same,viability of human cells,"U118; U118, 24 um",−
same,viability of human cells,"U87; U87, 2 um",+/−
same,viability of human cells,"U87; U87, 4 um",+/−
same,viability of human cells,"U87; U87, 6 um",−
same,viability of human cells,"U87; U87, 8 um",−
same,viability of human cells,"U87; U87, 12 um",−
same,viability of human cells,"U87; U87, 16 um",−
same,viability of human cells,"U87; U87, 20 um",−
same,viability of human cells,"U87; U87, 24 um",−
same,Kd,purified mouse Magmas,36 µM
same,Inhibition of yeast proliferation,[1]; 1 μM,−
same,Effect on yeast proliferation,[1]; 4 μM,significant and reproducible inhibition
same,lengthening of the time to half maximal growth,[1]; 4 μM,1.8 times
same,Effect on yeast proliferation,[1]; 10 μM,fully inhibited growth
same,Inhibition of yeast proliferation,[1]; 10 μM,+
same,Inhibition of yeast proliferation,[1]; 100 μM,+
same,Inhibition of yeast proliferation,[1]; 1 mM,+
same,viability of human cells,HUVEC; 2 um,+
same,viability of human cells,HUVEC; 4 um,+
same,viability of human cells,HUVEC; 6 um,+
same,viability of human cells,HUVEC; 8 um,+
same,viability of human cells,HUVEC; 12 um,+
same,viability of human cells,HUVEC; 16 um,+
same,viability of human cells,HUVEC; 20 um,+/−
same,viability of human cells,HUVEC; 24 um,−
same,sensitivity of tumor cell lines relative to normal primary cells (HUVEC),"HUVEC; tumor cell lines vs HUVEC, viability at 48 hrs",4 to 5 fold
same,Sensitivity of yeast to Compound 9,[2]; Magmas A104S,increased sensitivity
same,Sensitivity of yeast to Compound 9,[2]; Magmas N84T vs Wt plasmid,increased resistance
same,Sensitivity of yeast to Compound 9,[2]; over-expression of Magmas: Wt plasmid vs Wt genomic,reduces sensitivity
same,Kd,"purified yeast Magmas; yeast Magmas, FIG. 3A, read-out: calculated Kd",33 µM
same,Kd,"purified yeast Magmas; yeast target, read-out: binding constant",34 ± 2 µM
same,Mitotracker Red intensity,HeLa cells,reduced
